Measurements from patent US12435059B2, “AMP-activated protein kinase inhibitors and methods of making and using the same” (The Regents of the University of Colorado, priority 2019, dated 2025).

Experiments:
Experiment in all cases: biochemical
Type in all cases: binding
468 kinases [1] = biological target: 468 kinases (Homo sapiens, UniProt P36888, N841I); conditions: FLT3(N841I); read-out: % Inhibition @ 100 nM
468 kinases [2] = biological target: 468 kinases (Homo sapiens, UniProt P41240); conditions: CSK; read-out: % Inhibition @ 100 nM
468 kinases [3] = biological target: 468 kinases (Homo sapiens, UniProt Q9NSY1); conditions: BIKE; read-out: % Inhibition @ 100 nM
468 kinases [4] = biological target: 468 kinases (Homo sapiens, UniProt P25098); conditions: GRK2; read-out: % Inhibition @ 100 nM
468 kinases [5] = biological target: 468 kinases (Homo sapiens, UniProt P16591); conditions: FER; read-out: % Inhibition @ 100 nM
468 kinases [6] = biological target: 468 kinases (Homo sapiens, UniProt P42336, C420R); conditions: PIK3CA(C420R); read-out: % Inhibition @ 100 nM
468 kinases [7] = biological target: 468 kinases (Homo sapiens, UniProt Q8NEV4); conditions: MYO3A; read-out: % Inhibition @ 100 nM
468 kinases [8] = biological target: 468 kinases (Homo sapiens, UniProt P37173); conditions: TGFBR2; read-out: % Inhibition @ 100 nM
468 kinases (Homo sapiens, UniProt P37173), sequence (P37173 23-567 limits assumed): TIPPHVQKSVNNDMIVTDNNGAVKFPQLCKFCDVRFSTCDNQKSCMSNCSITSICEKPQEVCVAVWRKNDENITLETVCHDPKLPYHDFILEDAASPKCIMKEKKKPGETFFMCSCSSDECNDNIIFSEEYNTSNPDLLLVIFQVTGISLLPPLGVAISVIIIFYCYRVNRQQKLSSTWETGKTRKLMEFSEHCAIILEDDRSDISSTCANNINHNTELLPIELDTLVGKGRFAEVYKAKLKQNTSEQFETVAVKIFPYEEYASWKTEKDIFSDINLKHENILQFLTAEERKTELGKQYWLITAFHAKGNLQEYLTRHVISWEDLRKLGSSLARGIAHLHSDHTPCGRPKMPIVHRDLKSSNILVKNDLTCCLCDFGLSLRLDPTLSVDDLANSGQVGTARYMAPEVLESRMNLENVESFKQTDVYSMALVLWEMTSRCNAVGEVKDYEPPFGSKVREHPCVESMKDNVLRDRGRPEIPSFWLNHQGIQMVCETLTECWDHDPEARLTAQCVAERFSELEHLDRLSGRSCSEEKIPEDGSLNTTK

468 kinases [9] = biological target: 468 kinases (Homo sapiens, UniProt Q05655); conditions: PRKCD; read-out: % Inhibition @ 100 nM
468 kinases [10] = biological target: 468 kinases (Homo sapiens, UniProt Q13177); conditions: PAK2; read-out: % Inhibition @ 100 nM
468 kinases [11] = biological target: 468 kinases (Homo sapiens, UniProt Q9H3Y6); conditions: SRMS; read-out: % Inhibition @ 100 nM
468 kinases [12] = biological target: 468 kinases (Homo sapiens, UniProt P29322); conditions: EPHA8; read-out: % Inhibition @ 100 nM
468 kinases (Homo sapiens, UniProt P29322), sequence (P29322 28-1005 limits assumed): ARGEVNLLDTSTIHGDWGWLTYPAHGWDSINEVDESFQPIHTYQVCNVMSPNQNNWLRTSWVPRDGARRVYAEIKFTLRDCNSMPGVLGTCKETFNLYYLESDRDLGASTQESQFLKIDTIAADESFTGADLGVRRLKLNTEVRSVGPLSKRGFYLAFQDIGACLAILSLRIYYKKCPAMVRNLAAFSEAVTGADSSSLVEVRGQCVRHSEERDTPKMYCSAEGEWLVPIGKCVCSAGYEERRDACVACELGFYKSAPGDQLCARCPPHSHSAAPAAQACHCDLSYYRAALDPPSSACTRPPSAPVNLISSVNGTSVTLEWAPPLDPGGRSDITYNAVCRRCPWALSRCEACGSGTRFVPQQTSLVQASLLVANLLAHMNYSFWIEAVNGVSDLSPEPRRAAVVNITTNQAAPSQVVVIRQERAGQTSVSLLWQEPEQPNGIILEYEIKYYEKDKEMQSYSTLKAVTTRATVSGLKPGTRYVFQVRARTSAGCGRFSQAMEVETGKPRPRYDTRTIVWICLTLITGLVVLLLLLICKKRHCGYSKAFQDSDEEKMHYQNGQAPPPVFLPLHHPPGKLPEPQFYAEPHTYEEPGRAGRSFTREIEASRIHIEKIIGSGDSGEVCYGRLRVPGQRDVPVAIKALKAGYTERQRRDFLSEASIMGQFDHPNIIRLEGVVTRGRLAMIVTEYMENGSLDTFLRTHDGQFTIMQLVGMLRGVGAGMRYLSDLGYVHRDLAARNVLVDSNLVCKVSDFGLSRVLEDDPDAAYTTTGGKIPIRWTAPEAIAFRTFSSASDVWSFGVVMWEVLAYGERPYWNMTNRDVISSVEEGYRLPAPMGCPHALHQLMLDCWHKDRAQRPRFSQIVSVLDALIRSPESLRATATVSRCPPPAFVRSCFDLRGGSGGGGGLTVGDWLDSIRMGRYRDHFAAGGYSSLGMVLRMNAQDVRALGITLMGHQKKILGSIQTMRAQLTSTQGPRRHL

468 kinases [13] = biological target: 468 kinases (Homo sapiens, UniProt Q16288); conditions: TRKC; read-out: % Inhibition @ 100 nM
468 kinases (Homo sapiens, UniProt Q16288), sequence (Q16288 32-839 limits assumed): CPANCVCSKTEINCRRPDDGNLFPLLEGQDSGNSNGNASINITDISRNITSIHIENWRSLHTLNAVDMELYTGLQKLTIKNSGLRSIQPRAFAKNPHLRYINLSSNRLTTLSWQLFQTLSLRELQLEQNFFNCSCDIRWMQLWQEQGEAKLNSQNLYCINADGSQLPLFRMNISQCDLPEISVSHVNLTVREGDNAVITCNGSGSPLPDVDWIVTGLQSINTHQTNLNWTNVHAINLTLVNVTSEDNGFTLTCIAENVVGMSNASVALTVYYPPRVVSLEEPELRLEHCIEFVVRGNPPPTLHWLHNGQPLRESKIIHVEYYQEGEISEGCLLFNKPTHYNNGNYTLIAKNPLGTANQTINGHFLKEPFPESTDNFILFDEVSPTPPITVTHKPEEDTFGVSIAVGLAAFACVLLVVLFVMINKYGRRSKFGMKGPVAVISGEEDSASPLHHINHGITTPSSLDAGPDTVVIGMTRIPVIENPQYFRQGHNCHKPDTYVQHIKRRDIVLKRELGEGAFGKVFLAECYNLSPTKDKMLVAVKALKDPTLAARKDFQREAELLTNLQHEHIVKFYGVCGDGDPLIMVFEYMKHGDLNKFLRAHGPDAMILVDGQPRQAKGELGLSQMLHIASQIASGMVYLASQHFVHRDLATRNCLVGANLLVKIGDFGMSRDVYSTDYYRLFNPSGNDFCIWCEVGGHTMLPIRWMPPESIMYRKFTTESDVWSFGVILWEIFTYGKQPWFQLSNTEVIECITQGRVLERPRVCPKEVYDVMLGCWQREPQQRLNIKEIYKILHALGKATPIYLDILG

468 kinases [14] = biological target: 468 kinases (Homo sapiens, UniProt O14730); conditions: RIOK3; read-out: % Inhibition @ 100 nM
468 kinases [15] = biological target: 468 kinases (Homo sapiens, UniProt P42336, E542K); conditions: PIK3CA(E542K); read-out: % Inhibition @ 100 nM
468 kinases [16] = biological target: 468 kinases (Homo sapiens, UniProt P49760); conditions: CLK2; read-out: % Inhibition @ 100 nM
468 kinases [17] = biological target: 468 kinases (Homo sapiens, UniProt Q8IW41); conditions: MAPKAPK5; read-out: % Inhibition @ 100 nM
468 kinases [18] = biological target: 468 kinases (Homo sapiens, UniProt O15075); conditions: DCAMKL1; read-out: % Inhibition @ 100 nM
468 kinases [19] = biological target: 468 kinases (Homo sapiens, UniProt Q00537); conditions: PCTK2; read-out: % Inhibition @ 100 nM
468 kinases [20] = biological target: 468 kinases (Homo sapiens, UniProt P45985); conditions: MEK4; read-out: % Inhibition @ 100 nM
468 kinases (Homo sapiens, UniProt P45985), sequence (P45985 2-399 limits assumed): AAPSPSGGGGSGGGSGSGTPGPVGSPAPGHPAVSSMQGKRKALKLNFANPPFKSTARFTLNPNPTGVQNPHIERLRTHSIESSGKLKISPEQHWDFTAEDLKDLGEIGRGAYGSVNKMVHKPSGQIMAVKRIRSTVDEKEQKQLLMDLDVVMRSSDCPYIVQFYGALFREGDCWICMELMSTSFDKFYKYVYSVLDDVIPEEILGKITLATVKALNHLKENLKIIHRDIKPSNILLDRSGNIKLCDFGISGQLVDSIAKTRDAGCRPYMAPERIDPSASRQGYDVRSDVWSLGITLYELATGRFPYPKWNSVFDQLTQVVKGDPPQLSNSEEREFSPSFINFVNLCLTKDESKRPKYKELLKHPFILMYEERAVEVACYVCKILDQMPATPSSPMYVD

468 kinases [21] = biological target: 468 kinases (Homo sapiens, UniProt O43683); conditions: BUB1; read-out: % Inhibition @ 100 nM
468 kinases [22] = biological target: 468 kinases (Homo sapiens, UniProt P19525); conditions: PRKR; read-out: % Inhibition @ 100 nM
468 kinases [23] = biological target: 468 kinases (Homo sapiens, UniProt P51817); conditions: PRKX; read-out: % Inhibition @ 100 nM
468 kinases [24] = biological target: 468 kinases (Homo sapiens, UniProt Q9NWZ3); conditions: TRAK4; read-out: % Inhibition @ 100 nM
468 kinases [25] = biological target: 468 kinases (Homo sapiens, UniProt P08581, M1250T); conditions: MET(M1250T); read-out: % Inhibition @ 100 nM
468 kinases [26] = biological target: 468 kinases (Homo sapiens, UniProt P57058); conditions: HUNK; read-out: % Inhibition @ 100 nM
468 kinases [27] = biological target: 468 kinases (Homo sapiens, UniProt Q9HBH9); conditions: MKNK2; read-out: % Inhibition @ 100 nM
468 kinases [28] = biological target: 468 kinases (Homo sapiens, UniProt Q15746); conditions: MYLK; read-out: % Inhibition @ 100 nM
468 kinases [29] = biological target: 468 kinases (Homo sapiens, UniProt Q9UQ88); conditions: CDC2L2; read-out: % Inhibition @ 100 nM
468 kinases [30] = biological target: 468 kinases (Homo sapiens, UniProt P00533, G719C); conditions: EGFR(G719C); read-out: % Inhibition @ 100 nM
468 kinases (Homo sapiens, UniProt P00533, G719C), sequence (P00533 25-1210 G719C limits assumed): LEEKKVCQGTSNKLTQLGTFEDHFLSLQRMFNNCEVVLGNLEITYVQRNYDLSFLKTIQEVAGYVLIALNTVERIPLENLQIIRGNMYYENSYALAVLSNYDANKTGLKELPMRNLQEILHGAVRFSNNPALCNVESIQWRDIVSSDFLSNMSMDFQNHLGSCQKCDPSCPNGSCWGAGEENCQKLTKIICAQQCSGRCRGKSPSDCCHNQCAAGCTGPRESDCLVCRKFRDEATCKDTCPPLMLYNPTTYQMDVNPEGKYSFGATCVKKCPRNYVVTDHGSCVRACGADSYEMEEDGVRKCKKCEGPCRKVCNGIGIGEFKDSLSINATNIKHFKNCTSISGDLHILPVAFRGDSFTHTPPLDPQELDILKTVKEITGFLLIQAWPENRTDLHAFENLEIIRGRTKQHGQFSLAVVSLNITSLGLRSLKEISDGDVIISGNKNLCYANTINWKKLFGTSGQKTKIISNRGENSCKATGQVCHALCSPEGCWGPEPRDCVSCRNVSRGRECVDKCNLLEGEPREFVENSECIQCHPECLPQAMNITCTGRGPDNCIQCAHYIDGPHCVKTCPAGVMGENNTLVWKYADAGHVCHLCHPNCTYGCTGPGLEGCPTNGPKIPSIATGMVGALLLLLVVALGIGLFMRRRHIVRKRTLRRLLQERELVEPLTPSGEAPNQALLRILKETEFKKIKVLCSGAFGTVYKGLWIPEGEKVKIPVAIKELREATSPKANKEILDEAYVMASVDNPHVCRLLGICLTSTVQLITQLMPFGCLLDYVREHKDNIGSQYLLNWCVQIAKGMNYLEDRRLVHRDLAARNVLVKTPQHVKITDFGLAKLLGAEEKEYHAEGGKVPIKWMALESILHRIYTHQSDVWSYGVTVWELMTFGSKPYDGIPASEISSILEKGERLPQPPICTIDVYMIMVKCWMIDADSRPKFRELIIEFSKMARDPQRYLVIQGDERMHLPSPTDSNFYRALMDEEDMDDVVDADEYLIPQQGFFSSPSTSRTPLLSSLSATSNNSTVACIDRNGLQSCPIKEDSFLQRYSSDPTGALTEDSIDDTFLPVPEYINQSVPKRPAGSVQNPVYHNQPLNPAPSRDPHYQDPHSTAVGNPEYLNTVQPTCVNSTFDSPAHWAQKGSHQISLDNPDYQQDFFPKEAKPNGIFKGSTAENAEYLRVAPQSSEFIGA

468 kinases [31] = biological target: 468 kinases (Homo sapiens, UniProt Q13233); conditions: MAP3K1; read-out: % Inhibition @ 100 nM
468 kinases [32] = biological target: 468 kinases (Homo sapiens, UniProt Q86YV6); conditions: MYLK4; read-out: % Inhibition @ 100 nM
468 kinases [33] = biological target: 468 kinases (Homo sapiens, UniProt P16234); conditions: PDGFRA; read-out: % Inhibition @ 100 nM
468 kinases (Homo sapiens, UniProt P16234), sequence (P16234 24-1089 limits assumed): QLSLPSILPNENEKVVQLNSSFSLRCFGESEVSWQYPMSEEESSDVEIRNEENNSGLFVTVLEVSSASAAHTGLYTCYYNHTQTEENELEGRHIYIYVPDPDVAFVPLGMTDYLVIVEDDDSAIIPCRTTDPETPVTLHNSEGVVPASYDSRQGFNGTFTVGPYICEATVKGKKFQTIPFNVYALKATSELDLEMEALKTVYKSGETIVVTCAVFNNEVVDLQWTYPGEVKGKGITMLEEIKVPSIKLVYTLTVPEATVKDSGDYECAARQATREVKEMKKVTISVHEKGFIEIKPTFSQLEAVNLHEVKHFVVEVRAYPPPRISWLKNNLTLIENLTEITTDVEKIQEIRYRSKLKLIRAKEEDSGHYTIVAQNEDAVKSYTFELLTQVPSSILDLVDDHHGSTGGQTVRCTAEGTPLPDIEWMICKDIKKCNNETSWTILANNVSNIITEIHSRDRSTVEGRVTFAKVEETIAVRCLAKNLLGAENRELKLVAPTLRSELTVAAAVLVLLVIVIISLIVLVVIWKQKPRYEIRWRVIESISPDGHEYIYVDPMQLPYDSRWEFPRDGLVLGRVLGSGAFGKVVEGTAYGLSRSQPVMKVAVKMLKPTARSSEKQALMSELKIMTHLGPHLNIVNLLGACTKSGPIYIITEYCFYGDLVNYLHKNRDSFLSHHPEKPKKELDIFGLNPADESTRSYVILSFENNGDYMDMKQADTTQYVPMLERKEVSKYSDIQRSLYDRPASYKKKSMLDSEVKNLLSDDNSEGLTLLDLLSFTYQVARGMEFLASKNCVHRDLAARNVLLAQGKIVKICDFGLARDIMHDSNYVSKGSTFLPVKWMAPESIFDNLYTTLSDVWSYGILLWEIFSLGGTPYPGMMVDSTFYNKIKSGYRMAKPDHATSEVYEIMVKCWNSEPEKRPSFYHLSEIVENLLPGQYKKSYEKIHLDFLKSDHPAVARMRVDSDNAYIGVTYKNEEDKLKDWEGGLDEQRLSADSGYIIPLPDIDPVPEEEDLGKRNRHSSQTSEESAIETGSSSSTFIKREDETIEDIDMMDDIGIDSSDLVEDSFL

Row | Structure (SMILES) | inhibition at 0.1 µM (468 kinases [1]) | inhibition at 0.1 µM (468 kinases [2]) | inhibition at 0.1 µM (468 kinases [3]) | inhibition at 0.1 µM (468 kinases [4]) | inhibition at 0.1 µM (468 kinases [5]) | inhibition at 0.1 µM (468 kinases [6]) | inhibition at 0.1 µM (468 kinases [7]) | inhibition at 0.1 µM (468 kinases [8]) | inhibition at 0.1 µM (468 kinases [9]) | inhibition at 0.1 µM (468 kinases [10]) | inhibition at 0.1 µM (468 kinases [11]) | inhibition at 0.1 µM (468 kinases [12]) | inhibition at 0.1 µM (468 kinases [13]) | inhibition at 0.1 µM (468 kinases [14]) | inhibition at 0.1 µM (468 kinases [15]) | inhibition at 0.1 µM (468 kinases [16]) | inhibition at 0.1 µM (468 kinases [17]) | inhibition at 0.1 µM (468 kinases [18]) | inhibition at 0.1 µM (468 kinases [19]) | inhibition at 0.1 µM (468 kinases [20]) | further results
1 | CCN(CC)CCNC(=O)c1c(C)[nH]c(/C=C2\C(=O)Nc3ccc(CCO)cc32)c1C [Compound No. 10, (Z)—N-(2-(Diethylamino)ethyl)-5-((5-(2-hydroxyethyl)-2-oxoindolin-3-ylidene)methyl)-2,4-dimethyl-1H-pyrrole-3-carboxamide] | 95.5% | 0% | 97.4% | 0% | 12% | 0% | 0% | 0% | 16% | 0% | 13% | 0% | 60% | 93.9% | 10% | 93.8% | 0% | 32% | 0% | 0% | inhibition at 0.1 µM (468 kinases [21]): 0%; inhibition at 0.1 µM (468 kinases [22]): 2%; inhibition at 0.1 µM (468 kinases [23]): 0%; inhibition at 0.1 µM (468 kinases [24]): 68%; inhibition at 0.1 µM (468 kinases [25]): 0%; inhibition at 0.1 µM (468 kinases [26]): 13%; inhibition at 0.1 µM (468 kinases [27]): 0%; inhibition at 0.1 µM (468 kinases [28]): 49%; inhibition at 0.1 µM (468 kinases [29]): 1%; inhibition at 0.1 µM (468 kinases [30]): 32%; inhibition at 0.1 µM (468 kinases [31]): 0%; inhibition at 0.1 µM (468 kinases [32]): 32%; inhibition at 0.1 µM (468 kinases [33]): 84%
2 | CCN(CC)CCNC(=O)c1c(C)[nH]c(/C=C2\C(=O)Nc3ccc(CCC(N)=O)cc32)c1C [Compound No. 16, (Z)-5-((5-(3-Amino-3-oxopropyl)-2-oxoindolin-3-ylidene)methyl)-N-(2-(diethylamino)ethyl)-2,4-dimethyl-1H-pyrrole-3-carboxamide] | 85% | 1% | 93.6% | 48% | 0% | 31% | 1% | 0% | 9% | 0% | 27% | 0% | 63% | 100% | 26% | 100% | 28% | 32% | 17% | 97.7% | inhibition at 0.1 µM (468 kinases [21]): 21%; inhibition at 0.1 µM (468 kinases [22]): 29%; inhibition at 0.1 µM (468 kinases [23]): 9%; inhibition at 0.1 µM (468 kinases [24]): 68%; inhibition at 0.1 µM (468 kinases [25]): 6%; inhibition at 0.1 µM (468 kinases [26]): 0%; inhibition at 0.1 µM (468 kinases [27]): 52%; inhibition at 0.1 µM (468 kinases [28]): 34%; inhibition at 0.1 µM (468 kinases [29]): 13%; inhibition at 0.1 µM (468 kinases [30]): 9%; inhibition at 0.1 µM (468 kinases [31]): 36%; inhibition at 0.1 µM (468 kinases [32]): 24%; inhibition at 0.1 µM (468 kinases [33]): 55%
